Assay results reported in ChEMBL document CHEMBL1153321, “Approaches to the simultaneous inactivation of metallo- and serine-beta-lactamases” (Bioorg Med Chem Lett, 2009).

Columns and labels:
[1] = Inhibition of recombinant GIM-1
[2] = Inhibition of recombinant VIM-2

Row | Structure (SMILES) | IC50 [1] [µM] | IC50 [2] [µM]
1 | CC(=O)OCC1=C(C(=O)O)N2C(=O)[C@@H](N(O)C=O)[C@H]2SC1 | 0.3 | 10
2 | CC(=O)OCC1=C(C(=O)O)N2C(=O)/C(=N/O)[C@H]2SC1 | 15 | 10
3 | CC(=O)OCC1=C(C(=O)O)N2C(=O)/C(=N/O)[C@H]2S(=O)(=O)C1 | 170 | 270
4 | CC1=C(C(=O)O)N2C(=O)/C(=N/O)[C@H]2S(=O)(=O)C1 | > 500 | 25
5 | CC(=O)OCC1=C(C(=O)O)N2C(=O)[C@@H](NO)[C@H]2SC1 | 2 | 9
6 | CC(=O)OCC1=C(C(=O)O)N2C(=O)[C@@H](N(O)C(=O)Cc3ccccc3)[C@H]2SC1 | 0.3 | 2
7 | CC(=O)OCC1=C(C(=O)O)N2C(=O)[C@@H](NC=O)[C@H]2SC1 | 47 | 35
